# Where two headings read alike, the source gives them in different places.
# Tests used:
# [1] = tested on: Staphylococcus aureus; assay: Acute lethal mouse model, intraperitoneal Staphylococcus aureus infection; format: in vivo; settings: 168 h, mice dosed 1 h and 4 h post-infection
# Procedure: Determinations of in vivo efficacy are performed by inoculating mice intraperitoneally with cultures of the infecting organism diluted to produce 100% of mortality in control animals within twenty-four hours. The culture of S. aureus used to infect the animals was diluted to the required bacterial density using 5% aqueous hog gastric mucin. The compounds are dissolved or suspended in 0.25% aqueous Methocal® (Methocel®: Hydroxypropyl Methylcellulose, E15 Premium, Dow Chemical Company) for oral administration or sterile distilled water containing 5% dimethylsulfoxide (Fisher Scientific Company, Fairlawn, N.J.) for subcutaneous administration. The mice are dosed at one hour and at four hours post-infection. Mortality is recorded daily until test termination seven days post infection. The number of survivors in each treatment group on the seventh day after infection is used in the calculation of the ED50, the dose of compound that protects 50% of the mice (Litchfield, J. T. and Wildoxon. A simplified method for evaluating dose-effect experiments. J. Pharmacol Exp. Ther., 96:99-113, 1949 ).
# [2] = tested on: Escherichia coli; assay: In vitro broth microdilution MIC, Escherichia coli; format: cell-based; settings: 24-hour MIC, Mueller-Hinton broth, read-out: Minimum Inhibitory Concentration, Escherichia coli
# From the text: (§1) A standard microdilution method (National Committee for Clinical Standards. Tentative standard M7-T. Standard methods for dilution antimicrobial susceptibility tests for bacteria that grow aerobically. National Committee for Clinical Laboratory Standards, Villanova, PA. 1982) with Mueller-Hinton broth is used to determine the 24-hour minimal inhibitory concentrations (MIC's) for test strains of Staphylococcus aureus and Escherichia coli.
# [3] = tested on: Staphylococcus aureus; assay: In vitro broth microdilution MIC, Staphylococcus aureus; format: cell-based; settings: 24-hour MIC, Mueller-Hinton broth, read-out: Minimum Inhibitory Concentration, Staphylococcus aureus
# From the text: as §1
# [4] = oral, survival at day 7, read-out: ED50, Oral Administration
# [5] = sc, subcutaneous, survival at day 7, read-out: ED50, Subcutaneous Administration
smiles,measurement,setting,value
"CC(=O)NCC1CN(c2ccc3c(c2)CCC3=NN2CCN(C)CC2)C(=O)O1 (single isomer, unassigned) [Example 18, (l)-N-[3-[1,2-Dihydro-1-(4-methyl-1-piperazinylimino)-1H-inden-5-yl]-2-oxooxazolidin-5-ylmethyl]acetamide]",ED50,[1]; [4],13.9 mg/kg
same,ED50,[1]; [5],20.3 mg/kg
same,MIC,[2],> 128 µg/mL
same,MIC,[3],8 to 16 µg/mL
"CC(=O)NCC1CN(c2ccc3c(c2)CCC3)C(=O)O1 (single isomer, unassigned) [Example 1F, (l)-N-[3-(2,3-Dihydro-1H-inden-5-yl)-2-oxooxazolidin-5-ylmethyl]acetamide]",ED50,[1]; [4],2.2 mg/kg
same,ED50,[1]; [5],1.7 mg/kg
same,MIC,[2],> 128 µg/mL
same,MIC,[3],2 µg/mL
"CC(=O)NCC1CN(c2ccc3c(c2)CCC3=O)C(=O)O1 (single isomer, unassigned) [Example 16, (l)-N-[3-(2,3-Dihydro-1-oxo-1H-inden-5-yl)-2-oxooxazolidin-5-ylmethyl]acetamide]",ED50,[1]; [4],1.6 mg/kg
same,ED50,[1]; [5],1.2 mg/kg
same,MIC,[2],> 128 µg/mL
same,MIC,[3],2 to 4 µg/mL
"CC(=O)NCC1CN(c2ccc3c(c2)CCC3O)C(=O)O1 (single isomer, unassigned) [Example 17, (l)-N-[3-(2,3-Dihydro-1-hydroxy-1H-inden-5-yl)-2-oxooxazolidin-5-ylmethyl]acetamide]",ED50,[1]; [4],1.9 mg/kg
same,ED50,[1]; [5],1.8 mg/kg
same,MIC,[2],> 128 µg/mL
same,MIC,[3],8 µg/mL

# Reference: US4801600A, “Aminomethyl oxooxazolidinyl cycloalkylbenzene derivatives useful as antibacterial agents” (E. I. Du Pont de Nemours and Company, priority 1987, dated 1989)
